# Assay results taken from US9980943B2, “Methods of treating muscular dystrophy” (BOARD OF REGENTS OF THE NEVADA SYSTEM OF HIGHER EDUCATION, …, priority 2013, dated 2018).
# Key:
# Type in all cases: cell-based, mouse
# [1] = system: β-galactosidase in CMV-LacZ C2C12 myotubes; test: CMV-LacZ secondary screen in C2C12 myotubes (β-Gal stabilizing assay); conditions: for CMV-LACZ in Myotubes, signal relative to DMSO: C2C12 CMV-LacZ myotubes, fold relative to DMSO; for CMV-LACZ in Myotubes (β-galactosidase activity relative to DMSO): CMV-LacZ C2C12 myotubes, 96-well format
# How it was run: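 Dose-response runs at 0.5–40 μM (0.5, 1, 5, 10, 20, 40 μM; N=2 per point) used a clonal C2C12 line carrying CMV-LacZ. Cells were assayed as myoblasts or as differentiated myotubes, and β-galactosidase levels were read with the FDG fluorogenic substrate.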
# [2] = system: α7 integrin (LacZ reporter in α7βgal+/− myoblasts); test: Myoblast α7+/LacZ integrin FDG assay (Burkin assay in myoblasts, 96-well); conditions: α7+/LacZ myoblasts, 96-well
# [3] = system: α7 integrin (LacZ reporter in α7+/LacZ myotubes); test: Myotube α7 integrin FDG assay (Burkin assay in myotubes, 96-well); conditions: myotubes
Structure (SMILES),"CMV-LACZ in Myotubes, signal relative to DMSO ([1]; 5 uM)","CMV-LACZ in Myotubes, signal relative to DMSO ([1]; 10 uM)","CMV-LACZ in Myotubes, signal relative to DMSO ([1]; 20 uM)","CMV-LACZ in Myotubes, signal relative to DMSO ([1]; 40 uM)","Burkin Assay in Myoblasts, signal relative to DMSO ([2]; 0.5 uM)","Burkin Assay in Myoblasts, signal relative to DMSO ([2]; 1 uM)","Burkin Assay in Myoblasts, signal relative to DMSO ([2]; 5 uM)","Burkin Assay in Myoblasts, signal relative to DMSO ([2]; 10 uM)","Burkin Assay in Myoblasts, signal relative to DMSO ([2]; 20 uM)","Burkin Assay in Myoblasts, signal relative to DMSO ([2]; 40 uM)","Burkin Assay in Myotubes, α7 integrin LacZ reporter signal relative to DMSO ([3]; 0.5 uM)","Burkin Assay in Myotubes, α7 integrin LacZ reporter signal relative to DMSO ([3]; 1 uM)","Burkin Assay in Myotubes, α7 integrin LacZ reporter signal relative to DMSO ([3]; 5 uM)","Burkin Assay in Myotubes, α7 integrin LacZ reporter signal relative to DMSO ([3]; 10 uM)","Burkin Assay in Myotubes, α7 integrin LacZ reporter signal relative to DMSO ([3]; 20 uM)","Burkin Assay in Myotubes, α7 integrin LacZ reporter signal relative to DMSO ([3]; 40 uM)","Burkin Assay in Myoblasts, value relative to DMSO ([2]; 0.5 uM)","Burkin Assay in Myoblasts, value relative to DMSO ([2]; 1 uM)","Burkin Assay in Myoblasts, value relative to DMSO ([2]; 5 uM)","Burkin Assay in Myoblasts, value relative to DMSO ([2]; 10 uM)",other results
O=C(Nc1ccccc1F)c1ccc([N+](=O)[O-])s1 [MLS000703499-01],0.9313,0.9968,0.689,0.769,0.7093,1.017,0.9278,0.7632,0.4465,0.1043,0.9725,0.8809,1.059,0.8518,1.101,0.4494,,,,,
CN(C)CCNc1ncnc2sc(-c3ccccc3)cc12 [MLS001179717-01],1.084,0.8133,0.5748,0.4829,0.912,0.864,0.8357,0.6794,0.3052,0.05093,0.8788,1.027,0.744,0.6812,0.5137,0.2663,,,,,
COc1ccc(-n2c(SCC(=O)Nc3cccc(C(=O)O)c3)nnc2-c2ccco2)cc1 [MLS001215742-01],,,,,,,,,,,,,,,,,0.887,0.926,1.04,1.105,"CMV-LACZ in Myotubes (β-galactosidase activity relative to DMSO) ([1]; 5 uM): 1.026; CMV-LACZ in Myotubes (β-galactosidase activity relative to DMSO) ([1]; 10 uM): 1.1034; CMV-LACZ in Myotubes (β-galactosidase activity relative to DMSO) ([1]; 20 uM): 0.9254; CMV-LACZ in Myotubes (β-galactosidase activity relative to DMSO) ([1]; 40 uM): 0.9851; Burkin Assay in Myoblasts, value relative to DMSO ([2]; 20 uM): 0.7682; Burkin Assay in Myoblasts, value relative to DMSO ([2]; 40 uM): 0.8165; Burkin Assay in Myotubes (signal relative to DMSO) ([3]; 0.5 uM): 1.02; Burkin Assay in Myotubes (signal relative to DMSO) ([3]; 1 uM): 1.104; Burkin Assay in Myotubes (signal relative to DMSO) ([3]; 5 uM): 0.9803; Burkin Assay in Myotubes (signal relative to DMSO) ([3]; 10 uM): 1.155; Burkin Assay in Myotubes (signal relative to DMSO) ([3]; 20 uM): 0.8384; Burkin Assay in Myotubes (signal relative to DMSO) ([3]; 40 uM): 0.9687"
COc1ccc(NC(=O)c2cccc(N3C(=O)c4ccc(C(=O)Nc5ccc(OC)c(O)c5)cc4C3=O)c2)cc1O [MLS001124732-01],1.025,1.016,1.07,0.972,1.121,1.071,0.8622,0.8125,0.6893,0.6581,1.0065,1.029,0.8759,0.8964,0.8719,0.7888,,,,,
O=C(c1cccs1)N(Cc1ccco1)c1nc(-c2ccc(F)cc2)cs1 [MLS000122749-01],1.022,1.063,0.808,1.0025,1.113,1.04,1.026,1.116,1.185,0.948,1.042,0.9982,1.096,1.131,1.256,0.9306,,,,,
O=C(Nc1ccc(Oc2cccnc2)cc1)c1ccccc1Cl [MLS000574647-01],0.9166,0.9364,0.962,1.0095,1.081,1.027,0.9641,0.9515,0.8985,0.8343,0.935,0.8646,1.007,0.8596,1.006,0.8219,,,,,
CC(NC(=O)c1cn(C)c2ccc(S(=O)(=O)N3CCCC3)cc2c1=O)c1ccccc1 (centres unmarked) [MLS000913052-01],1.115,1.287,0.9154,0.92,,,,,,,,,,,,,1.116,1.038,1.076,1.067,"Burkin Assay in Myoblasts, value relative to DMSO ([2]; 20 uM): 1.113; Burkin Assay in Myoblasts, value relative to DMSO ([2]; 40 uM): 1.202; Burkin Assay in Myotubes (signal relative to DMSO) ([3]; 0.5 uM): 1.073; Burkin Assay in Myotubes (signal relative to DMSO) ([3]; 1 uM): 0.9014; Burkin Assay in Myotubes (signal relative to DMSO) ([3]; 5 uM): 1.055; Burkin Assay in Myotubes (signal relative to DMSO) ([3]; 10 uM): 1.013; Burkin Assay in Myotubes (signal relative to DMSO) ([3]; 20 uM): 0.9725; Burkin Assay in Myotubes (signal relative to DMSO) ([3]; 40 uM): 0.8287"
CCc1c(C2(O)CCCCC2)[nH]c2ncccc12 [MLS002402866-01],0.8739,0.7966,0.832,0.7307,,,,,,,,,,,,,1.037,1.1052,0.9113,0.9376,"Burkin Assay in Myoblasts, value relative to DMSO ([2]; 20 uM): 0.8943; Burkin Assay in Myoblasts, value relative to DMSO ([2]; 40 uM): 0.7689; Burkin Assay in Myotubes (signal relative to DMSO) ([3]; 0.5 uM): 1.09; Burkin Assay in Myotubes (signal relative to DMSO) ([3]; 1 uM): 1.258; Burkin Assay in Myotubes (signal relative to DMSO) ([3]; 5 uM): 1.181; Burkin Assay in Myotubes (signal relative to DMSO) ([3]; 10 uM): 1; Burkin Assay in Myotubes (signal relative to DMSO) ([3]; 20 uM): 1.075; Burkin Assay in Myotubes (signal relative to DMSO) ([3]; 40 uM): 0.9237"
